Experimental data: patent publication US5763430A, “Method of treating a viral infection by administering a steroid compound” (priority 1995, dated 1998)
In brackets after ≈: the same amount, converted by molar mass.

Legend:
[1] = tested on: stage 59-60 Xenopus tadpole; assay: Xenopus tadpole assay; conditions: for similarity of pharmacologic activity in tadpole assay: in vivo; for tadpole response: 10 μg/ml, about 1 hour
E. coli = assay: antibiotic activity (MIC); format: cell-based; conditions: Escherichia coli; E. coli; read-out: MIC
Excerpt: (§1) Thus, it is possible to achieve an antimicrobial steroid with or without squalamine-like pharmacological activity.

P. aerug = assay: antibiotic activity (MIC); format: cell-based; conditions: P. aerug; read-out: MIC
Excerpt: as §1

C. albicans = assay: antibiotic activity (MIC); format: cell-based; conditions: Candida albicans; C. albicans; read-out: MIC
Excerpt: as §1

S. aureus = assay: antibiotic activity (MIC); format: cell-based; conditions: Staphylococcus aureus; S. aureus; read-out: MIC
Excerpt: as §1

[2] = tested on: human microvascular cells; assay: inhibition of endothelial cell cord formation in vitro; format: cell-based; conditions: for minimal effective concentration: Homo sapiens, Endothelial cell, Table II, read-out: Minimum Effective Concentration, Cord Formation; as to effect on endothelial cord formation: key: +: Inhibition of angiogenesis; -: No inhibition of angiogenesis; Toxic; *: cell rounding @ 10 µg/ml
Excerpt: Endothelial cells have the capacity in vitro to form tubular aggregates resembling capillaries in various early stages of formation. This conversion occurs under relatively specific conditions, in which essential growth factors along with an effective substratum are provided. It has been shown that both the interaction of growth factors with the endothelial cell and its attachment to a substratum activate the NHE. The activation of this exchanger is believed to be required for subsequent morphologic transformation of the endothelial cell into a multicellular tubular structure.
To assess the effect of compounds on the cord-like structures formed by human microvascular cells when plated in the presence of VEGF (Vascular Endothelial Growth Factor) and basic fibroblast growth factor on a collagen matrix, a standard cord formation assay was used.

[3] = tested on: chick embryo vitelline capillaries; assay: chick embryo vitelline capillary regression assay; format: in vivo
Experimental: Using the chick embryo vitelline capillaries assay, compounds were tested for their ability to induce capillary regression. Each compound was applied in 0.1 ml of 15% Ficol 400 and PBS onto the embryo, and vascular regression was assessed after 60 minutes.
The 3-day chick embryo consists of an embryonic disc from which numerous vessels emerge and return, forming a "FIG. 8"-shaped structure--the embryo in the center with vascular loops extending outward over both poles. […] Following a lag period of around 15 minutes, the constriction of continuity between capillary and secondary vessels, generally on the "venous" side, was observed. Continued pulsatile blood flow progressed, resulting in a "swelling" of the blind tube, followed by a pinching off of the remaining connection and formation of an enclosed vascular sac resembling a "blood island." This process progressed until only the largest vessels remained intact.

Compound	similarity of pharmacologic activity in tadpole assay [1]	MIC (E. coli) [µg/mL]	MIC (P. aerug) [µg/mL]	MIC (C. albicans) [µg/mL]	MIC (S. aureus) [µg/mL]	effect on endothelial cord formation ([2]; 0.1 μg/ml)	effect on endothelial cord formation ([2]; 1.0 μg/ml)	effect on endothelial cord formation ([2]; 10.0 μg/ml)	minimal effective concentration [2] [µg/mL]	relative activity ([3]; Table 5)	tadpole response [1]	tadpole response ([1]; listed as compound 1360)	effect on blood circulating through embryonic vessels ([3]; within 20 minutes)
CC(C)CCC[C@@H](C)[C@H]1CC[C@H]2[C@@H]3[C@H](O)C[C@H]4C[C@H](NCCCNCCCCN)CC[C@]4(C)[C@H]3CC[C@]12C [Compound 370]	pharmacologic activity similar to that seen for FX 3	32 (≈ 60.2 µM)	64 (≈ 120 µM)	2 (≈ 3.76 µM)	4 (≈ 7.52 µM)								
C[C@H](CCC(=O)O)[C@H]1CC[C@H]2[C@@H]3[C@H](O)C[C@@H]4C[C@@H](NCCN)CC[C@]4(C)[C@H]3CC[C@]12C [Compound 415]		128 (≈ 294 µM)	256 (≈ 589 µM)	256 (≈ 589 µM)	128 (≈ 294 µM)	-	-	+/T	> 10	especially active			
COC(=O)CC[C@@H](C)[C@H]1CC[C@H]2[C@@H]3[C@H](O)C[C@@H]4C[C@H](NCCN)CC[C@]4(C)[C@H]3CC[C@]12C [Compound 410]	functionally similar to compound 1437	16 (≈ 35.7 µM)	32 (≈ 71.3 µM)	16 (≈ 35.7 µM)	16 (≈ 35.7 µM)	-	+	+	10				
COC(=O)CC[C@@H](C)[C@H]1CC[C@H]2[C@@H]3C[C@@H](O)[C@H]4C[C@@H](NCCCNCCCCNCCCN)CC[C@]4(C)[C@H]3CC[C@]12C [Compound 466]	pharmacologic activity similar to that seen for FX 3	32 (≈ 54.2 µM)	32 (≈ 54.2 µM)	2 (≈ 3.38 µM)	2 (≈ 3.38 µM)								
COC(=O)CC[C@@H](C)[C@H]1CC[C@H]2[C@@H]3CC[C@H]4C[C@H](NCCCNCCCCNCCCN)CC[C@]4(C)[C@H]3CC[C@]12C [Compound 458]	pharmacologic activity similar to that seen for FX 3	32 (≈ 55.7 µM)	64 (≈ 111 µM)	2 (≈ 3.48 µM)	4 (≈ 6.96 µM)								
CC(C)CCC[C@@H](C)[C@H]1CC[C@H]2[C@@H]3[C@H](O)C[C@H]4C[C@@H](NCCCNCCCCN)CC[C@]4(C)[C@H]3CC[C@]12C [Compound 371]	effects like those produced by compound 1436	64 (≈ 120 µM)	64 (≈ 120 µM)	2 (≈ 3.76 µM)	4 (≈ 7.52 µM)								
COC(=O)CC[C@@H](C)[C@H]1CC[C@H]2[C@@H]3[C@H](O)C[C@@H]4C[C@@H](NCCN)CC[C@]4(C)[C@H]3CC[C@]12C [Compound 409]	functionally similar to compound 1437	64 (≈ 143 µM)	128 (≈ 285 µM)	16 (≈ 35.7 µM)	32 (≈ 71.3 µM)								
COC(=O)CC[C@@H](C)[C@H]1CC[C@H]2[C@@H]3C[C@@H](O)[C@H]4C[C@H](NCCCNCCCCNCCCN)CC[C@]4(C)[C@H]3CC[C@]12C [Compound 465]	pharmacologic activity similar to that seen for FX 3	32 (≈ 54.2 µM)	128 (≈ 217 µM)	4 (≈ 6.77 µM)	2 to 4 (≈ 3.38 to 6.77 µM)								
COC(=O)CC[C@@H](C)[C@H]1CC[C@H]2[C@@H]3C[C@@H](O)[C@H]4C[C@H](NCCN)CC[C@]4(C)[C@H]3CC[C@]12C [Compound 431]	functionally similar to compound 1437	32 to 64 (≈ 71.3 to 143 µM)	128 (≈ 285 µM)	8 (≈ 17.8 µM)	16 (≈ 35.7 µM)								
C[C@H](CCC(=O)O)[C@H]1CC[C@H]2[C@@H]3[C@H](O)C[C@@H]4C[C@H](NCCCNCCCCNCCCN)CC[C@]4(C)[C@H]3CC[C@]12C [Compound 412]	pharmacologic activity similar to that seen for FX 3	64 (≈ 111 µM)	8 (≈ 13.9 µM)	8 (≈ 13.9 µM)	8 (≈ 13.9 µM)	-	-	+	> 10				
CC(COS(=O)(=O)O)C(=O)CC[C@@H](C)[C@H]1CC[C@H]2[C@@H]3[C@H](O)C[C@H]4C[C@@H](NCCCNCCCCN)CC[C@]4(C)[C@H]3CC[C@]12C (single isomer, unassigned) [Compound 1360]		128 (≈ 199 µM)		32 (≈ 49.8 µM)	8 (≈ 12.5 µM)						Swelling and lysis of certain erythrocytes occurred, resulting in accumulation of nuclei within certain small vessels of the tail	extensive vasocclusion occurred within 60 minutes throughout the tail	exhibited a brighter red color
COC(=O)CC[C@@H](C)[C@H]1CC[C@H]2[C@@H]3C[C@@H](O)[C@H]4C[C@@H](NCCN)CC[C@]4(C)[C@H]3CC[C@]12C [Compound 432]	functionally similar to compound 1437	8 to 16 (≈ 17.8 to 35.7 µM)	64 (≈ 143 µM)	2 to 4 (≈ 4.46 to 8.91 µM)	1 (≈ 2.23 µM)		-	-					
COC(=O)CC[C@@H](C)[C@H]1CC[C@H]2[C@@H]3CC[C@H]4C[C@@H](NCCCNCCCCNCCCN)CC[C@]4(C)[C@H]3CC[C@]12C [Compound 459]	pharmacologic activity similar to that seen for FX 3	32 (≈ 55.7 µM)	64 (≈ 111 µM)	2 (≈ 3.48 µM)	1 to 2 (≈ 1.74 to 3.48 µM)								
C[C@H](CCC(=O)O)[C@H]1CC[C@H]2[C@@H]3[C@H](O)C[C@@H]4C[C@@H](NCCCNCCCCNCCCN)CC[C@]4(C)[C@H]3CC[C@]12C [Compound 413]	effects like those produced by compound 1436	256 (≈ 444 µM)	64 (≈ 111 µM)	32 (≈ 55.5 µM)	8 (≈ 13.9 µM)	-	-	+	> 10				
C[C@H](CCC(=O)O)[C@H]1CC[C@H]2[C@@H]3[C@H](O)C[C@@H]4C[C@H](NCCN)CC[C@]4(C)[C@H]3CC[C@]12C [Compound 414]	potencies comparable to that of Fraction 1	64 (≈ 147 µM)	64 (≈ 147 µM)	64 (≈ 147 µM)	32 (≈ 73.6 µM)								
C[C@H](CCC(=O)O)[C@H]1CC[C@H]2[C@@H]3C[C@@H](O)[C@H]4C[C@@H](NCCN)CC[C@]4(C)[C@H]3CC[C@]12C [Compound 433]	functionally similar to compound 1437	> 256	128 (≈ 294 µM)	> 256	> 256								
CC(C)CCC[C@@H](C)[C@H]1CC[C@H]2[C@@H]3[C@H](O)C[C@H]4C[C@H](N)CC[C@]4(C)[C@H]3CC[C@]12C [Compound 1363]	potencies comparable to that of Fraction 1	> 256	> 256	2 (≈ 4.95 µM)	2 (≈ 4.95 µM)								
